Laboratory results from patent publication EP0437336B1, “Biophosphoryl hydrazines and their use as pesticides” (priority 1990, dated 1991).
Converted amounts (≈) assume the structure as drawn. Like-named read-outs stand apart in the source and are kept apart here.

How the values were obtained:
[1] = system: southern corn rootworm, Diabrotica undecimpunctata howardi; conditions: Diabrotica undecimpunctata, in Zea mays, foliar, 336 h, read-out: foliar systemic nonagressive Method B crw % control at 0.56 kg/ha (0.5 lb/acre)
[2] = system: Boll Weevil; test: Biological Method D: Foliar Insecticidal Activity Test, boll weevil test; assay type: in vivo, Anthonomous grandis; set-up: key: I = inactive at concentration listed
[3] = system: Southern Armyworm; test: Biological Method D: Foliar Insecticidal Activity Test, Southern Armyworm test; assay type: in vivo, Spodoptera eridania; set-up: key: I = inactive at concentration listed
[4] = system: southern corn rootworm, Diabrotica undecimpunctata howardi; test: Biological Method A: Corn Rootworm Screening Test (treated non-aggressive soil); conditions: soil concentration giving 90% mortality, 10 days at 27°C
[5] = system: Two-Spotted Spider Mite; test: Biological Method D: Foliar Insecticidal Activity Test, mite test; assay type: in vivo, Tetranychus urticae; set-up: key to LC50 TSM: I = inactive at concentration listed; conditions: Method D foliar test; Two-Spotted Spider Mite
[6] = system: southern corn rootworm, Diabrotica undecimpunctata howardi; conditions: at-planting soil application
[7] = system: Green Peach Aphid; test: Biological Method D: Foliar Insecticidal Activity Test, aphid test; assay type: in vivo, Myzus persicae; set-up: key: I = inactive at concentration listed
[8] = system: Mexican Bean Beetle; test: Biological Method D: Foliar Insecticidal Activity Test, Mexican Bean Beetle test; assay type: in vivo, Epilachna varivestis; set-up: key to LC50 BB 96 hrs / LC50 BB 48 hrs.: I = inactive at concentration listed; conditions: Method D foliar test, Mexican Bean Beetle; for LC50: Epilachna varivestis
[9] = system: Japanese beetle (Popillia japonica ) eggs; test: Biological Method E: Turf Grub Insecticidal Activity Test; assay type: in vivo; conditions: soil incorporation
Experimental: Biological Method E: Turf Grub Insecticidal Activity Test
These will give soil concentrations of […] (1.6, 0.8, 0.4, and 0.2 pounds per acre), respectively.
Ten milliliters of test solution were incorporated into 250 ml of moistened soil (clay loam, 90% : humus soil, 10%) and allowed to air in an uncapped pint jar for about 2 hours. After airing, a small amount of seed mixture containing equal parts of redtop (Agrostis alba ) and white clover (Trifolium repens ) was incorporated into the soil. Two 50 ml quantities of soil were placed into dep 88.72 cm³ (3 ounce) ointment tin cans.
Ten Japanese beetle (Popillia japonica ) eggs were placed into the soil in each can and the can capped with its tined lid. Treatments were held for 23 days at 30 degrees Centigrade.
Upon termination, the soil was sieved to isloate the grubs. The percent mortality was determined for each concentration.

[10] = 96 hrs, read-out: LC50 BB 96 hrs
[11] = 23 days at 30 degrees Centigrade

| SMILES | pest or weed control at 560 g/ha [1] [%] | LC50 BW 48 hrs [2] | LC50 BW 96 hrs [2] | LC50 AW 48 hrs [3] | LC50 AW 96 hrs [3] | primary nonagressive Method A crw LC90 [4] [ppm] | LC50 TSM [5] | secondary aggressive Method C crw LC50 ([6]; rated 17 days post-infestation) [kg/ha] | secondary aggressive Method C crw LC50 ([6]; value in brackets) [lb/acre] | LC50 GPA [7] | LC50 ([8]; 48 hrs, read-out: LC50 BB 48 hrs.) [µg/mL] | LC50 [8, 10] [µg/mL] | LC95 [9, 11] [kg/ha] | LC95 ([9]; 23 days, value in brackets) [pounds per acre] | LC50 BB 48 hrs. ([8]; 48 hrs) |
| --- | --- | --- | --- | --- | --- | --- | --- | --- | --- | --- | --- | --- | --- | --- | --- |
| CCCOP(=S)(NNP(=S)(OCC)OCC(C)(C)C)OCCC (stereo not drawn) [Compound 41, N-(O,O-dipropylthiophosphoryl) N′-(O-ethyl O-neopentylthiophosphoryl) hydrazine] | 31 | I | I | I | I | 0.06 | I | 0.3 | 0.27 | I | 62 (≈ 153 µM) | 78 (≈ 192 µM) | < 0.22 | < 0.2 |  |
| CCOP(=S)(NNP(=S)(OCC)OC(C)C)OCC(C)(C)C (stereo not drawn) [Compound 46, N-(O-ethyl O-isopropylthiophosphoryl) N′-(O-ethyl O-neopentylthiophosphoryl) hydrazine] |  | I | I | I | I | 0.08 | I | 0.34 | 0.30 | I |  | 45 (≈ 115 µM) | < 0.22 | < 0.2 | I |
